{
  "source": "patent US5399790A",
  "about": "“Non-steroid and non-prostanoid inhibitors of steroid and prostaglandin transforming enzymes” (Trustees of The University of Pennsylvania, priority 1993, dated 1995)",
  "molecules": {"B1": {"name": "3α-HSD (Rattus norvegicus) (protein)", "chain": "MDSISLRVALNDGNFIPVLGFGTTVPEKVAKDEVIKATKIAIDNGFRHFDSAYLYEVEEEVGQAIRSKIEDGTVKREDIFYTSKLWSTFHRPELVRTCLEKTLKSTQLDYVDLYIIHFPMALQPGDIFFPRDEHGKLLFETVDICDTWEAMEKCKDAGLAKSIGVSNFNCRQLERILNKPGLKYKPVCNQVECHLYLNQSKMLDYCKSKDIILVSYCTLGSSRDKTWVDQKSPVLLDDPVLCAIAKKYKQTPALVALRYQLQRGVVPLIRSFNAKRIKELTQVFEFQLASEDMKALDGLNRNFRYNNAKYFDDHPNHPFTDE", "notes": "the purified 3α-HSD of rat liver cytosol; from tissue; host or cells: rat liver (cytosol)"}},
  "key": {"[1]": {"target": "T1, 3α-HSD (Rattus norvegicus, UniProt P23457)", "T1 construct": "the purified 3α-HSD of rat liver cytosol; from tissue; host or cells: rat liver (cytosol)", "T1 sequence (P23457 1-322)": "B1 chain", "test": "time dependent inactivation of purified 3α-HSD", "type": "biochemical", "settings": "for inactivation of 3α-HSD: result in words; for return of enzyme activity after inactivation: gel filtration or extensive dialysis of the inactivated enzyme", "description": "3α-HSD (24 μM of purified enzyme) was incubated in systems (30 μl) containing 1.2 mM NAD^+, 10 mM potassium phosphate buffer pH 7.0, 1 mM EDTA and 5% acetonitrile as a co-solvent. Enzyme activity was followed over time by diluting an aliquot of the incubation mixture into a 1 ml assay containing: 2.3 mM NAD^+ and 75 μM androsterone in 0.1M potassium phosphate buffer pH 7.0, with 4% acetonitrile as a co-solvent. Initial rates were determined spectrophotometrically by measuring the rate of NADH formation at 340 nm. Because of the 100 fold or greater dilution of the enzyme into the assay, the initial rate measured is an indication of the enzyme activity remaining at that time. Semi-log plots of the amount of enzyme remaining vs. time are curvilinear (panel a). Initial rates of inactivation (kapp's) were estimated by taking tangents to these curves. Data was replotted as 1/kapp vs 1/allylic alcohol from which kinact (the rate constant for enzyme inactivation) and Ki (the binding constant of the allylic alcohol) were determined, (panel b).\nInactivation of 3α-HSD (24 μM) was conducted in incubations (60 μl) of 10 mM potassium phosphate buffer pH 7.0 containing 1 mM EDTA and 4% acetonitrile as a co-solvent. After the initial enzyme activity was determined (see the legend of FIG. 2 for assay composition), the concentration of inactivator indicated (.cndot.=0 μM, .circle.=2.1 μM, =4.9 μM, .gradient.=10.0 μM, =15.0 μM, []24.0 μM) was added and the sample incubated at 25° C. Over time, samples were withdrawn and diluted into the standard assay to determine the amount of enzyme activity remaining. A secondary plot of the amount of enzyme inactivated vs. the amount of inhibitor added provided the stoichiometry of inactivation when corrected for nonspecific loss of enzyme activity (panel b). The continuous line without points is a theoretical line for a stoichiometry of 1:1."}, "[2]": {"target": "T1, 3α-HSD", "test": "chromatography of inactivated 3α-HSD on the immobilized nucleotide analog Cibacron Blue", "type": "binding", "excerpt": "(§1) Three types of experimental evidence indicate that both the enone (III) and the acetylenic ketone (IV) alkylate the pyridine nucleotide binding domain in preference to the steroid binding site of the enzyme. […] Third, chromatographic experiments using the immobilized nucleotide analog Cibacron Blue indicate that both native enzyme and enzyme inactivated with the steroid affinity alkylator, 17β-bromoacetoxy-5α-androstan-17β-ol-3-one, bind tightly to the immobilized nucleotide analog. By contrast, enzyme inactivated by either (III) or (IV) has no affinity for the immobilized nucleotide analogue. This experimental evidence implies that the alkylators (III) and (IV) covalently modify the nucleotide binding domain of 3α-HSD."}, "[3]": {"target": "T2, cyclooxygenase (Ovis aries, UniProt P05979)", "T2 construct": "cyclooxygenase obtained from sheep seminal vesicle microsomes; from tissue; host or cells: sheep seminal vesicle microsomes", "T2 sequence (P05979 25-600)": "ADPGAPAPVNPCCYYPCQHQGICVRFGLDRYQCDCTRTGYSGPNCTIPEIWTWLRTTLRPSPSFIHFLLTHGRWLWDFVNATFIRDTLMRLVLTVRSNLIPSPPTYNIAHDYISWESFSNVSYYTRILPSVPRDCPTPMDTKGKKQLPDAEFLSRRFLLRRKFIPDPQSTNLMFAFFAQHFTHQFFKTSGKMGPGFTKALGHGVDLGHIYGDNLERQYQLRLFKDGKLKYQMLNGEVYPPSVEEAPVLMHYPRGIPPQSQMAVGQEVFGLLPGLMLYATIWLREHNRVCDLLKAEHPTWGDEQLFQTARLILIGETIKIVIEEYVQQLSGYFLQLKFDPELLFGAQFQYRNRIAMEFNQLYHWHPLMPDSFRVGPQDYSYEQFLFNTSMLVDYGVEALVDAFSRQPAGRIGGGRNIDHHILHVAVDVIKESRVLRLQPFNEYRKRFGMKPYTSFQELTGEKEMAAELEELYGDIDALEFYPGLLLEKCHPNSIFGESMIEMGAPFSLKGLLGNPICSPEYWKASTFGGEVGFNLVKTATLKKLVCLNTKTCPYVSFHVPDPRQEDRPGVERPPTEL", "test": "time dependent inactivation of semi-purified cyclooxygenase (oxygen consumption)", "type": "biochemical, sheep", "settings": "for inactivation of cyclooxygenase / prostaglandin synthases: result in words", "description": "Semi-purified cyclooxygenase (480 μg) was pre-incubated in 100 μl systems containing the inhibitor concentrations indicated, along with 50 mM Tris-HCl (pH=7.2), 100 μM EDTA, 1 mM phenol, 1 μM hematin, 1% Tween, and 10% DMSO. At the time intervals shown, 5 μl aliquots were removed and diluted into a 600 μl assay system containing 100 mM potassium phosphate (pH=7.2), 1 mM phenol, and 100 μM arachidonic acid. The rate of oxygen consumption was then measured. The maximum rate of oxygen uptake observed in these assays was 1.875 μmoles of oxygen consumed per minute per milligram protein."}, "[4]": {"target": "T1, 3α-HSD", "test": "steady state kinetic measurements and protection from inactivation of 3α-HSD", "type": "biochemical", "settings": "for type of inhibition versus NAD+ binding / type of inhibition versus androsterone binding: steady state kinetic measurements", "excerpt": "as §1"}, "[5]": {"test_system": "3α-HSD and 3(17)β-HSD (Pseudomonas testosteroni), 3α,20α-HSD (Streptomyces hydrogenase), 20α-HSD (rat ovary), 3β-HSD (rat liver), alcohol dehydrogenase …", "test": "broad screen of the alcohols as suicide substrates of dehydrogenases", "type": "biochemical", "settings": "eight dehydrogenases screened", "description": "A broad screen was conducted in which the allylic (I) and acetylenic alcohols (II) were examined as suicide substrates of the following enzymes: 3α-HSD and 3(17)β-HSD (Pseudomonas testosteroni), 3α,20α-HSD (Streptomyces hydrogenase), 20α-HSD (rat ovary), 3β-HSD (rat liver), alcohol dehydrogenase (yeast), lactate dehydrogenase (porcine heart) and 3α-HSD (rat liver)."}, "[6]": {"substrate": "C#CC(O)c1ccc([N+](=O)[O-])cc1", "test": "enzymatic oxidation of the allylic and acetylenic alcohols by 3α-HSD in the presence of NAD+", "type": "biochemical, rat", "settings": "other: oxidation by 3α-HSD in the presence of NAD+; pH 7.0; 25.0 °C"}, "[7]": {"substrate": "C=CC(O)c1ccc([N+](=O)[O-])cc1", "test": "enzymatic oxidation of the allylic and acetylenic alcohols by 3α-HSD in the presence of NAD+", "type": "biochemical, rat", "settings": "other: oxidation by 3α-HSD in the presence of NAD+; pH 7.0; 25.0 °C"}},
  "note": "Entries after “also recorded” stand apart in the source; their conditions may differ.",
  "data": [
    {"molecule": "C=CC(=O)c1ccc([N+](=O)[O-])cc1", "note": "[III, 1-(4'-nitrophenyl)-2-propen-1-one]", "values": [
      {"measurement": "inactivation of 3α-HSD", "setting": "[1]", "result": "stoichiometric inactivators; also recorded: too fast to accurately measure; also recorded: rapid and stoichiometric"},
      {"measurement": "binding of the inactivated enzyme to the immobilized nucleotide analog", "setting": "[2]", "result": "no affinity"},
      {"measurement": "inactivation of cyclooxygenase / prostaglandin synthases", "setting": "[3]", "result": "irreversibly inactivate prostaglandin synthases in a time dependent manner"},
      {"measurement": "inactivation of cyclooxygenase / prostaglandin synthases", "setting": "[3]; listed as iii", "result": "time and concentration dependent inactivation"},
      {"measurement": "t1/2 life at saturation", "setting": "[3]; semi-purified cyclooxygenase from sheep seminal vesicle microsomes", "result": "1 to 2", "unit": "min"},
      {"measurement": "IC50", "setting": "[3]; semi-purified cyclooxygenase from sheep seminal vesicle microsomes, read-out: concentration required to inactivate 50% of the enzyme activity", "result": 837, "unit": "µM"},
      {"measurement": "protection of 3α-HSD from inactivation by NAD+", "setting": "[4]", "result": "complete protection"},
      {"measurement": "protection of 3α-HSD from inactivation by androsterone and other compounds competitive for the steroid binding site", "setting": "[4]", "result": "slow the rate of inactivation but do not completely block this event"},
      {"measurement": "type of inhibition versus NAD+ binding", "setting": "[4]", "result": "competitive inhibitors"},
      {"measurement": "type of inhibition versus androsterone binding", "setting": "[4]", "result": "non-competitive or mixed inhibitors"}
    ]},
    {"molecule": "CC(=O)Oc1ccccc1C(=O)O", "note": "[acetyl salicylate, reference compound]", "values": [
      {"measurement": "cyclooxygenase inactivated", "setting": "[3]; 100 μM, over 20 hours", "result": 50, "unit": "%"}
    ]},
    {"molecule": "C#CC(O)c1ccc([N+](=O)[O-])cc1", "note": "(stereo not drawn) [II, 1-(4'-nitrophenyl)-2-propyn-1-ol]", "values": [
      {"measurement": "return of enzyme activity after inactivation", "setting": "[1]", "result": "enzyme activity does not return"},
      {"measurement": "inactivation of 3α-HSD", "setting": "[1]", "result": "highly selective mechanism-based inactivators"},
      {"measurement": "selectivity as suicide substrate among the screened enzymes", "setting": "[5]", "result": "only rat liver 3α-HSD effectively oxidized the alcohols"}
    ]},
    {"molecule": "C[C@]12CCC(=O)C[C@@H]1CC[C@@H]1[C@@H]2CC[C@]2(C)[C@@H](OC(=O)CBr)CC[C@@H]12", "note": "[17β-bromoacetoxy-5α-androstan-17β-ol-3-one, reference compound]", "values": [
      {"measurement": "binding of the inactivated enzyme to the immobilized nucleotide analog", "setting": "[2]", "result": "bind tightly"}
    ]},
    {"molecule": "C=CC(O)c1ccc([N+](=O)[O-])cc1", "note": "(stereo not drawn) [I, 1-(4'-nitrophenyl)-2-propen-1-ol]", "values": [
      {"measurement": "t1/2 life for the enzyme", "setting": "[1]; at a saturating allylic alcohol concentration", "result": 8, "unit": "s"},
      {"measurement": "molecules of the allylic alcohol oxidized for every molecule of enzyme inactivated", "setting": "[1]; comparison of the rate of oxidation with that of enzyme inactivation", "result": "≤ 10", "unit": "molecules"},
      {"measurement": "partition ratio kcat/kinact", "setting": "[1]; estimated, theoretical limit 1", "result": 5.3},
      {"measurement": "return of enzyme activity after inactivation", "setting": "[1]", "result": "enzyme activity does not return"},
      {"measurement": "Ki", "setting": "[1]; method of Kitz and Wilson, in the presence of NAD+", "result": 1.2, "unit": "mM"},
      {"measurement": "inactivation of 3α-HSD", "setting": "[1]", "result": "highly selective mechanism-based inactivators; also recorded: time-dependent loss of 3α-HSD activity"},
      {"measurement": "selectivity as suicide substrate among the screened enzymes", "setting": "[5]", "result": "only rat liver 3α-HSD effectively oxidized the alcohols"}
    ]},
    {"molecule": "C#CC(=O)c1ccc([N+](=O)[O-])cc1", "note": "[IV, 1-(4'-nitrophenyl)-2-propyn-1-one]", "values": [
      {"measurement": "inactivation of 3α-HSD", "setting": "[1]", "result": "stoichiometric inactivators; also recorded: rapid and stoichiometric"},
      {"measurement": "binding of the inactivated enzyme to the immobilized nucleotide analog", "setting": "[2]", "result": "no affinity"},
      {"measurement": "inactivation of cyclooxygenase / prostaglandin synthases", "setting": "[3]", "result": "irreversibly inactivate prostaglandin synthases in a time dependent manner"},
      {"measurement": "inactivation of cyclooxygenase / prostaglandin synthases", "setting": "[3]; listed as iv", "result": "time and concentration dependent inactivation"},
      {"measurement": "protection of 3α-HSD from inactivation by NAD+", "setting": "[4]", "result": "complete protection"},
      {"measurement": "protection of 3α-HSD from inactivation by androsterone and other compounds competitive for the steroid binding site", "setting": "[4]", "result": "slow the rate of inactivation but do not completely block this event"},
      {"measurement": "type of inhibition versus NAD+ binding", "setting": "[4]", "result": "competitive inhibitors"},
      {"measurement": "type of inhibition versus androsterone binding", "setting": "[4]", "result": "non-competitive or mixed inhibitors"}
    ]},
    {"molecule": "B1", "values": [
      {"measurement": "Vmax", "setting": "[6]", "result": 0.3, "unit": "µmol/min/mg"},
      {"measurement": "Km", "setting": "[7]", "result": 2.02, "unit": "mM"},
      {"measurement": "Vmax", "setting": "[7]", "result": 0.58, "unit": "µmol/min/mg"}
    ]}
  ]
}
